≈ marks a conversion by molar mass, not a printed value. Where “and” joins values, the source holds several entries; their conditions need not be identical. Equal values may be shown once. Read-outs that look alike come from different tables or passages of the source.
Experiments:
[1] = tested on: S. aureus ATCC 700699 (Sa 99); experiment: MIC, broth microdilution, Sa 99; assay type: cell-based; conditions: for MIC: Staphylococcus aureus, read-out: Minimum inhibitory concentration (MIC) Sa 99; for Minimum inhibitory concentration (MIC) Sa 99: Table 1, HT series
Description: (§1) The broth microdilution method was utilized to determine MIC values of novel thiazole derivatives against different clinically important Gram-positive bacteria according to the guidelines outlined by the Clinical and Laboratory Standards Institute (CLSI) as reported in our recent papers.^1-5 The starting concentration of compounds for MIC determination was 64 μg/mL serially diluted down the wells and the MIC values were recorded in duplicates in three independent experiments on different days.

[2] = tested on: S. aureus ATCC 33592 (Sa 92); experiment: MIC, broth microdilution, Sa 92; assay type: cell-based; conditions: Staphylococcus aureus, ATCC33592, read-out: Minimum inhibitory concentration (MIC) Sa 92
Description: as §1

[3] = tested on: S. aureus ATCC 33591 (Sa 91); experiment: MIC, broth microdilution, Sa 91; assay type: cell-based; conditions: Staphylococcus aureus, ATCC33591, read-out: Minimum inhibitory concentration (MIC) Sa 91
Description: as §1

[4] = tested on: S. aureus ATCC 25923 (Sa 23); experiment: MIC, broth microdilution, Sa 23; assay type: cell-based; conditions: for MIC: Staphylococcus aureus, read-out: Minimum inhibitory concentration (MIC) Sa 23; for Minimum inhibitory concentration (MIC) Sa 23: Table 1, HT series
Description: as §1

[5] = tested on: S. aureus ATCC BAA-2312 (Sa 12); experiment: MIC, broth microdilution, Sa 12; assay type: cell-based; conditions: Staphylococcus aureus, ATCCBAA2312, read-out: Minimum inhibitory concentration (MIC) Sa 12
Description: as §1

[6] = tested on: E. faecalis ATCC 29212 (Efs 12); experiment: MIC, broth microdilution, Efs 12; assay type: cell-based; conditions: for MIC: Enterococcus faecalis, read-out: Minimum inhibitory concentration (MIC) Efs 12; for Minimum inhibitory concentration (MIC) Efs 12: Table 1, HT series
Description: as §1

[7] = tested on: Sa UAMS-1 MRSA ATCC 49230 (Sa UAMS); experiment: MIC, broth microdilution, Sa UAMS; assay type: cell-based, S. aureus; conditions: Staphylococcus aureus
Description: as §1

[8] = tested on: S. aureus subsp. aureus Rosenbach ATCC 25904 (SA Newman); experiment: MIC, broth microdilution, SA Newman; assay type: cell-based; conditions: Staphylococcus aureus, read-out: Minimum inhibitory concentration (MIC) Sa Newman
Description: as §1

[9] = tested on: S. aureus LAC MRSA (Sa LAC); experiment: MIC, broth microdilution, Sa LAC; assay type: cell-based; conditions: Staphylococcus aureus, Table 1, HT series, read-out: Minimum inhibitory concentration (MIC) Sa LAC
Description: as §1

[10] = tested on: S. aureus subsp. aureus Rosenbach BAA-1717 (Sa USA 300); experiment: MIC, broth microdilution, Sa USA 300; assay type: cell-based; conditions: Staphylococcus aureus; Table 2, HTM series; read-out: Minimum inhibitory concentration (MIC) Sa USA 300
Description: as §1

[11] = tested on: S. epidermidis ATCC 700296 (Se); experiment: MIC, broth microdilution, Se; assay type: cell-based; conditions: Staphylococcus epidermidis, ATCC700296; Table 2, HTM series; read-out: Minimum inhibitory concentration (MIC) Se
Description: as §1

[12] = tested on: E. faecalis ATCC 51299 (Efs 99); experiment: MIC, broth microdilution, Efs 99; assay type: cell-based; conditions: Enterococcus faecalis, ATCC51299; Table 2, HTM series; read-out: Minimum inhibitory concentration (MIC) Efs 99
Description: as §1

[13] = tested on: E. faecium ATCC 700221 (Efm 21); experiment: MIC, broth microdilution, Efm 21; assay type: cell-based; conditions: Enterococcus faecium, ATCC700221, Table 2, HTM series; read-out: Minimum inhibitory concentration (MIC) Efm 21
Description: as §1

[14] = ATCC700699, Table 1, HT series, replicates from different days separated by comma
[15] = replicates from different days separated by comma
[16] = ATCC25923, Table 1, HT series, replicates from different days separated by comma
[17] = ATCC29212, Table 1, HT series, replicates from different days separated by comma
[18] = Table 1, HT series, read-out: Minimum inhibitory concentration (MIC) Sa UAMS
[19] = ATCC700699, Table 2, HTM series
[20] = Table 2, HTM series, read-out: Minimum inhibitory concentration (MIC) Sa UAMS-1

SMILES	Minimum inhibitory concentration (MIC) Sa 99 [1, 15]	MIC ([2]; Table 1, HT series) [µg/mL]	MIC ([3]; Table 1, HT series) [µg/mL]	MIC [4, 16] [µg/mL]	Minimum inhibitory concentration (MIC) Sa 23 [4, 15]	MIC ([5]; Table 1, HT series) [µg/mL]	Minimum inhibitory concentration (MIC) Efs 12 [6, 15]	MIC [7, 18] [µg/mL]	MIC [1, 19] [µg/mL]	MIC ([2]; Table 2, HTM series) [µg/mL]	MIC ([3]; Table 2, HTM series) [µg/mL]	MIC ([4]; ATCC25923, Table 2, HTM series) [µg/mL]	MIC ([5]; Table 2, HTM series) [µg/mL]	MIC ([6]; ATCC29212, Table 2, HTM series) [µg/mL]	MIC [7, 20] [µg/mL]	MIC ([8]; Table 2, HTM series) [µg/mL]	MIC [10] [µg/mL]	MIC [11] [µg/mL]	MIC [12] [µg/mL]	MIC [13] [µg/mL]	other results
Oc1ccc(-c2nc(-c3ccccc3)cs2)cc1O [Compound 2, 4-(4-phenylthiazol-2-yl)benzene-1,2-diol]	16 µg/mL (≈ 59.4 µM)	16 (≈ 59.4 µM)	16 (≈ 59.4 µM)	8 (≈ 29.7 µM)	16 µg/mL (≈ 59.4 µM)	32 (≈ 119 µM)	>32, >32, >32 μg/mL	32 (≈ 119 µM)													MIC [1, 14]: 32 µg/mL (≈ 119 µM); MIC [6, 17]: > 32 µg/mL; MIC ([8]; Table 1, HT series): 32 µg/mL (≈ 119 µM); MIC [9]: 32 µg/mL (≈ 119 µM)
Oc1ccc(-c2nc(-c3cccc(Cl)c3)cs2)cc1O [Compound 3, 4-(4-(3-chlorophenyl)thiazol-2-yl)benzene-1,2-diol]	4, 4, 4 μg/mL	8 (≈ 26.3 µM)	4 (≈ 13.2 µM)	2 (≈ 6.58 µM)	2, 2, 2 μg/mL	8 (≈ 26.3 µM)	8 µg/mL and 16 µg/mL	8 (≈ 26.3 µM)													MIC [1, 14]: 4 µg/mL (≈ 13.2 µM); MIC [6, 17]: 16 µg/mL (≈ 52.7 µM); MIC ([8]; Table 1, HT series): 4 µg/mL (≈ 13.2 µM); MIC [9]: 8 µg/mL (≈ 26.3 µM)
Oc1ccc(-c2nc(-c3ccc(F)cc3)cs2)cc1O [Compound 4, 4-(4-(4-fluorophenyl)thiazol-2-yl)benzene-1,2-diol]	16 μg/mL (2×) and 4 μg/mL	16 (≈ 55.7 µM)	8 (≈ 27.8 µM)	4 (≈ 13.9 µM)	8 µg/mL (≈ 27.8 µM)	16 (≈ 55.7 µM)	32, 32, 32 μg/mL	16 (≈ 55.7 µM)													MIC [6, 17]: 32 µg/mL (≈ 111 µM); MIC ([8]; Table 1, HT series): 8 µg/mL (≈ 27.8 µM); MIC [9]: 16 µg/mL (≈ 55.7 µM)
Oc1ccc(-c2nc(-c3ccc(Cl)cc3Cl)cs2)cc1O [Compound 6, 4-(4-(2,4-dichlorophenyl)thiazol-2-yl)benzene-1,2-diol]	2, 2, 2 μg/mL	8 (≈ 23.7 µM)	4 (≈ 11.8 µM)	2 (≈ 5.91 µM)	2, 2, 2 μg/mL	8 (≈ 23.7 µM)	16 µg/mL and 2 µg/mL and 8 µg/mL	8 (≈ 23.7 µM)													MIC [1, 14]: 2 µg/mL (≈ 5.91 µM); MIC ([8]; Table 1, HT series): 4 µg/mL (≈ 11.8 µM); MIC [9]: 8 µg/mL (≈ 23.7 µM)
Oc1ccc(-c2csc(-c3ccc(O)c(O)c3)n2)cc1 [Compound 8, 4-(4-(4-hydroxyphenyl)thiazol-2-yl)benzene-1,2-diol]	8 µg/mL (≈ 28 µM)	32 (≈ 112 µM)	32 (≈ 112 µM)	16 (≈ 56.1 µM)	16, 16, 16 μg/mL	16 (≈ 56.1 µM)	>32, >32, >32 μg/mL	32 (≈ 112 µM)													MIC [1, 14]: 16 µg/mL (≈ 56.1 µM); MIC [6, 17]: > 32 µg/mL; MIC ([8]; Table 1, HT series): 16 µg/mL (≈ 56.1 µM); MIC [9]: 16 µg/mL (≈ 56.1 µM)
Oc1ccc(-c2csc(-c3ccc(Cl)c(Cl)c3)n2)cc1 [Compound 65, 4-(2-(3,4-dichlorophenyl)thiazol-4-yl)phenol]									1 (≈ 3.1 µM)	1 (≈ 3.1 µM)	1 (≈ 3.1 µM)	1 (≈ 3.1 µM)	1 (≈ 3.1 µM)	2 (≈ 6.21 µM)	2 (≈ 6.21 µM)	2 (≈ 6.21 µM)	1 (≈ 3.1 µM)	1 (≈ 3.1 µM)	2 (≈ 6.21 µM)	2 (≈ 6.21 µM)	
Cc1ccc(Nc2nc(-c3ccc(O)cc3)cs2)cc1Cl [Compound 67, 4-(2-((3-chloro-4-methylphenyl)amino)thiazol-4-yl)phenol]									4 (≈ 12.6 µM)	4 (≈ 12.6 µM)	8 (≈ 25.3 µM)	4 (≈ 12.6 µM)	4 (≈ 12.6 µM)	8 (≈ 25.3 µM)	4 (≈ 12.6 µM)	4 (≈ 12.6 µM)	4 (≈ 12.6 µM)	4 (≈ 12.6 µM)	8 (≈ 25.3 µM)	4 (≈ 12.6 µM)	
Oc1ccc(-c2csc(Nc3cc(Cl)c(Cl)cc3Cl)n2)cc1 [Compound 69, 4-(2-((2,4,5-trichlorophenyl)amino)thiazol-4-yl)phenol]									1 (≈ 2.69 µM)	1 (≈ 2.69 µM)	1 (≈ 2.69 µM)	1 (≈ 2.69 µM)	1 (≈ 2.69 µM)	4 (≈ 10.8 µM)	4 (≈ 10.8 µM)	4 (≈ 10.8 µM)	4 (≈ 10.8 µM)	8 (≈ 21.5 µM)	4 (≈ 10.8 µM)	4 (≈ 10.8 µM)	
Oc1ccc(-c2csc(Nc3cc(Cl)ccc3Cl)n2)cc1 [Compound 73, 4-(2-((2,5-dichlorophenyl)amino)thiazol-4-yl)phenol]									4 (≈ 11.9 µM)	4 (≈ 11.9 µM)	4 (≈ 11.9 µM)	4 (≈ 11.9 µM)	4 (≈ 11.9 µM)	4 (≈ 11.9 µM)	4 (≈ 11.9 µM)	4 (≈ 11.9 µM)	4 (≈ 11.9 µM)	4 (≈ 11.9 µM)	8 (≈ 23.7 µM)	8 (≈ 23.7 µM)	
Oc1ccc(-c2csc(Nc3ccc(Cl)c(Cl)c3)n2)cc1O [Compound 74, 4-(2-((3,4-dichlorophenyl)amino)thiazol-4-yl)benzene-1,2-diol]									4 (≈ 11.3 µM)	4 (≈ 11.3 µM)	8 (≈ 22.6 µM)	4 (≈ 11.3 µM)	4 (≈ 11.3 µM)	8 (≈ 22.6 µM)	8 (≈ 22.6 µM)	8 (≈ 22.6 µM)	8 (≈ 22.6 µM)	4 (≈ 11.3 µM)	8 (≈ 22.6 µM)	4 (≈ 11.3 µM)	
Oc1ccc(-c2csc(Nc3ccc(Cl)c(Cl)c3)n2)cc1 [Compound 75, 4-(2-((3,4-dichlorophenyl)amino)thiazol-4-yl)phenol]									2 (≈ 5.93 µM)	2 (≈ 5.93 µM)	2 (≈ 5.93 µM)	2 (≈ 5.93 µM)	2 (≈ 5.93 µM)	4 (≈ 11.9 µM)	2 (≈ 5.93 µM)	4 (≈ 11.9 µM)	2 (≈ 5.93 µM)	2 (≈ 5.93 µM)	4 (≈ 11.9 µM)	4 (≈ 11.9 µM)	

From patent US20250270199A1, “THIAZOLE DERIVATIVES AND METHODS OF USING THE SAME” (Arkansas State University - Jonesboro, priority 2022, published 2025)
